Assay results reported in patent publication US9469643B2, “Polymorphic forms of (S)-2-(1-(9H-purin-6-ylamino)propyl)-5-fluoro-3-phenylquinazolin-4(3H)-one” (GILEAD CALISTOGA LLC, priority 2012, dated 2016).
Values after ≈ are worked out from the molar mass of the structure shown. Like-named read-outs stand apart in the source and are kept apart here.

Experiments:
Format in all cases: physicochemical
[1] = Compression of Form I in hydraulic tablet press, XRPD
Description: Form I of (S)-2-(1-(9H-purin-6-ylamino)propyl)-5-fluoro-3-phenylquinazolin-4(3H)-one was subjected to high pressure in a hydraulic tablet press (ENERPAC Model P142 hydraulic press; #9166 0.275 inch punch) as shown in Table 3 below. The relaxation time is the time between compressions. A sample of the compressed solids was analyzed by XRPD and DSC. FIGS. 2A and 2B depict the XRPD and DSC patterns of polymorphic Form II.

[2] = Form I suspensions in acetone at different temperatures: form conversion; conditions: magnetic stirring
Description: Form I of (S)-2-(1-(9H-purin-6-ylamino)propyl)-5-fluoro-3-phenylquinazolin-4(3H)-one was suspended in acetone at a concentration of 50 mg/mL, and stirred magnetically over a period of 5-6 days. Four experiments at different temperature were conducted.
Table 4 summarizes the reaction conditions and the amount of polymorphic forms observed for each of the four experiments. As used in this Example, “Enriched II” described a sample that contains substantially more Form II than Form I.

[3] = Dry and wet grinding experiments: conversion of Form I into Form II in slurry
Description: Form I of (S)-2-(1-(9H-purin-6-ylamino)propyl)-5-fluoro-3-phenylquinazolin-4(3H)-one was pre-processed using various grinding methods before forming a slurry in either acetone or THF and stirring at either room temperature, 22° C. or 30° C. As used in this Example, “enriched” describes a sample that contains substantially more Form II than Form I.

[4] = Hydrate screen in IPA/water system: solid form by XRPD
Description: XRPD patterns were collected using a PANalytical X'Pert MPD Pro Powder X-Ray Diffractometer configured with reflectance stage with spinning, data acquisition range: 2-40 degrees 2θ, Copper (Cu) anode; Kα1/Kα2 radiation; tube current 40 mA; tube tension 45 kV; automatic divergence and anti-scatter slits. Samples were prepared for analysis by distributing solid material as a thin layer on a silicon holder. Each holder was mounted on a reflectance/transmittance stage and rotated during data acquisition.
(§1) About 50 mg of Form I of (S)-2-(1-(9H-purin-6-ylamino)propyl)-5-fluoro-3-phenylquinazolin-4(3H)-one was slurried in either (A) a 1-mL mixture of a isopropyl alcohol (IPA) and water, or (B) a 1-mL mixture of ethanol and water, for several days at room temperature. As used herein, water activity (aw) in liquid phase corresponds to relative humidity in the atmosphere. For example, 0.5 aw is equivalent to 50% relative humidity.

[5] = Conversion of ball milled Form I into Form II in acetone slurry (XRPD); conditions: 10 g ball milled at 30 Hz for 10 minutes, stirred in 300 mL acetone at 28° C.
Description: Form I was prepared as described in Example 1. Form I solids were ball milled in batches for 10 minutes at 30 Hz. Samples were analyzed by XRPD. Table 1 below summarizes the amount of polymorphic Form II observed from conversion of polymorphic Form I. Additionally, 10 g of Form I was ball milled at 30 Hz for 10 minutes and stirred in 300 mL of acetone at 28° C.

[6] = Hydrate screen in ethanol/water system: solid form
Description: as §1
Form VII of (S)-2-(1-(9H-purin-6-ylamino)propyl)-5-fluoro-3-phenylquinazolin-4(3H)-one was a mixed water/ethanol solvate.

[7] = Hydrate screen in IPA/water system: solubility of slurried Form I; conditions: isopropyl alcohol/water mixture, organic solvent or mixture, thermodynamic from solid; for solubility: read-out: 15-16 Day Solubility
Description: as §1

[8] = Effect of temperature on form conversion of solids (DSC, heating, XRPD)
Description: DSC indicated close melting points for each polymorph and a solid-solid transition in Form II at about 115° C. to produce Form I. To confirm this finding, […] of Form I of (S)-2-(1-(9H-purin-6-ylamino)propyl)-5-fluoro-3-phenylquinazolin-4(3H)-one was heated at 50° C., 60° C., 70° C., 80° C., 90° C., 100° C., 110° C. and 120° C. jacket temperature using Destiny for 22 hours.

[9] = Form I slurried in IPA/water aw 0.2, room temperature
[10] = Form I slurried in IPA/water aw 0.3, room temperature
[11] = Form I slurried in IPA/water aw 0.4, room temperature
[12] = Form I slurried in IPA/water aw 0.5, room temperature
[13] = Form I slurried in IPA/water aw 0.6, room temperature
[14] = Form I slurried in IPA/water aw 0.7, room temperature
[15] = Form I slurried in IPA/water aw 0.8, room temperature
[16] = Form I slurried in IPA/water aw 0.9, room temperature
[17] = IPA/water aw 0.2, room temperature, solid by XRPD Form I & II
[18] = IPA/water aw 0.3, room temperature, solid by XRPD Form I & II
[19] = IPA/water aw 0.4, room temperature, solid by XRPD Form I & II
[20] = IPA/water aw 0.5, room temperature, solid by XRPD Form I & II
[21] = IPA/water aw 0.6, room temperature, solid by XRPD Form I & II

CC[C@H](Nc1ncnc2[nH]cnc12)c1nc2cccc(F)c2c(=O)n1-c1ccccc1 [Form I, (S)-2-(1-(9H-purin-6-ylamino)propyl)-5-fluoro-3-phenylquinazolin-4(3H)-one]
XRPD (forms observed) ([1]; 163 mg, 2000 psi, 5 min, relaxation time 72 hours): I & II (~1:1)
XRPD (forms observed) ([1]; 164 mg, 3000 psi, 5 min, relaxation time 2 hours): I & II (~1:1)
XRPD (forms observed) ([1]; 167 mg, 2000 psi, 10 min, relaxation time 72 hours): I & II (~1:1)
XRPD (forms observed) ([1]; 168 mg, 3000 psi, 10 min, relaxation time 2 hours): I & II (~1:1)
XRPD (forms observed) ([1]; 171 mg, 3000 psi, 60 min, relaxation time 72 hours): I & II (excess
XRPD (forms observed) ([1]; amount NA, atm pressure, no compression): Form I &
conversion of Form I to Form II ([1]; compressed at 3000 psi for 60 minutes (FIG. 5C)): over 50%
XRPD (forms observed) ([1]; ~150 mg, 1000 psi, <0.5 min, relaxation time 24 hours): Form I and II
XRPD (forms observed) ([1]; ~150 mg, atm pressure, no compression): Form I and II
XRPD (forms observed) ([1]; ~160 mg, 4500 psi, <0.5 min): Form I and II
Form observed after suspension in acetone ([2]; 50 mg/mL, 30 ° C., suspension time 5 days): Enriched II
Form observed after suspension in acetone ([2]; 51 mg/mL, 27 ° C., suspension time 5 days): Enriched II
Form observed after suspension in acetone ([2]; 52 mg/mL, 33 ° C., suspension time 6 days): Form I
Form observed after suspension in acetone ([2]; 52 mg/mL, 37 ° C., suspension time 6 days): Form I
Form II content ([3]; 0.2 g, dry/wet grinding, acetone slurry, r.t., magnetic stirring, after 1 day): Enriched after 1 day
Form II content ([3]; 0.2 g, dry/wet grinding, acetone slurry, r.t., magnetic stirring, after 2 days): Highly enriched after 2 days
Form II content ([3]; 1 g, dry/wet grinding, acetone slurry, r.t., magnetic stirring, after 1 week): Trace amount after 1 week
Form II content ([3]; 1 g, high shear mixer (dry), THF slurry, r.t., magnetic stirring, after 1 day): Trace amount after 1 day
Form II content ([3]; 1 g, high shear mixer (dry), acetone slurry, r.t., magnetic stirring, after 1 day): Trace amount after 1 day
Form II content ([3]; 1 g, jet milled, acetone slurry, 22 ° C., magnetic stirring, after 1 day): Small amount after 1 day
Form II content ([3]; 1 g, jet milled, acetone slurry, 22 ° C., magnetic stirring, after 4 days): Enriched after 4 days
Form II content ([3]; 5 g, high shear wet mill, acetone slurry, 30 ° C., overhead stirring, after 3 days): Undetectable after 3 days
Form II content ([3]; 20 g, dry grinding, acetone slurry, 30 ° C., overhead stirring, after 3 days): Undetectable after 3 days
15-16 Day XRPD (solid form) [4, 9]: Form I & II
48 Hour XRPD (solid form) [4, 9]: Form I & II
15-16 Day XRPD (solid form) [4, 10]: Form I & II
48 Hour XRPD (solid form) [4, 10]: Form I & II
15-16 Day XRPD (solid form) [4, 11]: Form I & II
48 Hour XRPD (solid form) [4, 11]: Form I & II
15-16 Day XRPD (solid form) [4, 12]: Form I & II
48 Hour XRPD (solid form) [4, 12]: Form I & II
15-16 Day XRPD (solid form) [4, 13]: Form I & II
48 Hour XRPD (solid form) [4, 13]: Form I & II
15-16 Day XRPD (solid form) [4, 14]: Form III
48 Hour XRPD (solid form) [4, 14]: Form III
15-16 Day XRPD (solid form) [4, 15]: Form III
48 Hour XRPD (solid form) [4, 15]: Form III
15-16 Day XRPD (solid form) [4, 16]: Form III
48 Hour XRPD (solid form) [4, 16]: Form III
conversion of Form I into Form II ([5]; after 18 hours): about 50%
conversion of Form I into Form II ([5]; after 40 hours): about 90%
Form (solid form after slurry) ([6]; Form I slurried in ethanol/water aw 0.9, several days, room temperature): I & VII
Form conversion in ethanol/water system ([6]; water activity 0.5 and 0.6, room temperature (data not shown in Table 6)): no conversion
Form conversion in ethanol/water system ([6]; water activity from 0.2 to 0.4, room temperature (data not shown in Table 6)): slowly converted to Form II
solubility at 48 h [7, 17]: 24 mg/mL (≈ 57.8 mM)
solubility [7, 17]: 20 mg/mL (≈ 48.1 mM)
solubility at 48 h [7, 18]: 19 mg/mL (≈ 45.7 mM)
solubility [7, 18]: 19 mg/mL (≈ 45.7 mM)
solubility at 48 h [7, 19]: 18 mg/mL (≈ 43.3 mM)
solubility [7, 19]: 20 mg/mL (≈ 48.1 mM)
solubility at 48 h [7, 20]: 23 mg/mL (≈ 55.4 mM)
solubility [7, 20]: 20 mg/mL (≈ 48.1 mM)
solubility at 48 h [7, 21]: 23 mg/mL (≈ 55.4 mM)
solubility [7, 21]: 24 mg/mL (≈ 57.8 mM)
solubility at 48 h ([7]; IPA/water aw 0.7, room temperature, solid by XRPD Form III): 9.8 mg/mL (≈ 23.6 mM)
solubility at 48 h ([7]; IPA/water aw 0.8, room temperature, solid by XRPD Form III): 11 mg/mL (≈ 26.5 mM)
temperature at which form conversion of heated solids was observed ([8]; solids heated at 50-120° C. jacket temperature for 22 hours, XRPD (FIG. 6)): around 90 °C

CC[C@H](Nc1ncnc2[nH]cnc12)c1nc2cccc(F)c2c(=O)n1-c1ccccc1 [Form II, (S)-2-(1-(9H-purin-6-ylamino)propyl)-5-fluoro-3-phenylquinazolin-4(3H)-one]
solid-solid transition temperature (to produce Form I) ([8]; by DSC): about 115 °C
